# Source: patent US11517612B2, “Methods of treating inflammatory skin disorders” (NEPSONE EHF, priority 2016, dated 2022)
# Where no end group is shown, it is not given here.
# Tested on: psoriatic lesion(s)
# Experiment: Pre-psoriatic rim topical administration and treatment of psoriasis
# Type: in vivo
# Protocol: In one embodiment, a composition for topical administration was prepared using the peptide CGRP8-37 in a topical formulation at 20 μg/g. The effective range of the peptide in the composition can be between 0.00001 μg/g to […], depending on formulation and measured penetration parameters. The described composition was applied to an area at least partially around the psoriatic lesion(s), termed the pre-psoriatic rim, which was determined using well known laser Doppler flowmetry. […] 10 μg/g of the peptide was applied twice daily for 4 weeks. The composition was purposely not applied directly to the lesion. Without being held to a single theory, a novel local neural transport mechanism appears to be responsible for the effects observed by the pre-psoriatic rim administration resulting in treatment of psoriasis. Topical steroids are usually applied directly on lesions as is the convention for most topical treatments. Topical steroid molecules are much smaller (<500 Da) then CGRP8-37 (3100 Da) and therefore can more easily penetrate thick skin, topical steroids also have a side-effect on normal skin causing skin atrophy in some cases. That is why, for steroids and some other topical remedies e.g. tar (being irritating to normal skin), applying around the lesion is not recommended. […]
substance,measurement,setting,value
"CGRP8-37: CGRP derivative peptide, high affinity CGRP receptor antagonist; sequence SEQ ID NO:1 or SEQ ID NO:2; used in topical formulation (VTHRLAGLLSRSGGVVKNNFVPTNVGSKAF; ends and bridges not checked; UniProt P06881 90-119, looked up, fragment)",improvement at low dosage,"applied around the lesion, doses as low as 1 μg/g of topical formulation",significant improvement
same,"response of psoriatic lesion (plaque on right shoulder, FIGS. 8-10)","topical composition applied to pre-psoriatic rim, not directly to the lesion, 10 μg/g of the peptide twice daily for 4 weeks",clearing completely
